# In US20210244028A1, “TREATMENT FOR REMOVING ECTOPARASITES FROM FISH” (priority 2018, published 2021):
# What was measured:
# [1] = tested on: Atlantic salmon; experiment: Fish mortality and behaviour during bath treatment (Example 7); format: in vivo; details: 20 ppm to 200 ppm, 3 to 60 minutes
# Procedure: To determine the concentration- and time-dependence of imidacloprid treatment in vivo, Atlantic salmon (average of 320.9 g) were challenged with imidacloprid in seawater ([…] salinity) at 12° C. The water level in the tank was lowered and aeration was employed during administration of the active. The salmon louse copepodid culture was counted and adjusted to obtain a target level of around 40 copepodids per fish in the challenge tank at each challenge time point.
# Fish behaviour/appearance was assessed in vivo during each test. Any changes in behaviour and/or appearance including mortality were recorded.
# [2] = tested on: pre-adult and adult sea lice; experiment: Timescale of effect on sea lice on killed salmon suspended in treatment water (Example 5)
# Procedure: To determine the timescale of the effect of imidacloprid, salmon infected with pre-adult and adult sea lice were removed from a stock tank and killed using a sharp blow to the head.
# For fish exposed to 0 ppm imidacloprid (negative controls), observations were made for 60 minutes. […] Three fish per treatment group were tested.
# Observations on the time at which lice left the host, and the sex and stage of the sea louse was noted. Any lice that left the host were transferred to clean sea water immediately. Furthermore, any lice remaining on the host at the end of the exposure period were removed from the host and transferred to clean sea water.
# Lice were observed both shortly after and approximately 2 hours after the end of the exposure period.
# The ratio of male to female sea lice was around 50:50. The water temperature was around 12° C.
smiles,measurement,setting,value
O=[N+]([O-])NC1=NCCN1Cc1ccc(Cl)nc1 [imidacloprid],Fish mortality in the trial,[1],No fish died
same,Lice considered dead at 30 minutes post-exposure,"[2]; 20 mg/L, of 49 lice exposed",two
same,Lice considered dead at 2 hours p.e.,[2]; 50 ppm,14
same,Lice considered dead at 30 minutes,"[2]; 50 ppm, of 21 lice exposed",four
same,Lice considered dead at 2 hours p.e.,[2]; 100 ppm,17/28
same,Lice considered dead at the end of the exposure period,"[2]; 100 ppm, of 28 lice exposed",four
same,Lice considered dead 2 hours post-exposure,"[2]; 200 ppm, of 26 lice exposed",Six
same,Lice considered dead at the end of the exposure period,"[2]; 200 ppm, of 26 lice exposed",four
same,Lice considered dead 30 minutes p.e.,[2]; 500 ppm,Six out of 20
same,Lice considered dead at 2 hours p.e.,[2]; 500 ppm,15/20
same,Lice that left the host within the first 9 minutes,"[2]; 500 ppm, dead host, around 12° C.",around 70%
same,Lice that left the host within the first 15 minutes,"[2]; between 20 and 200 ppm, dead host, around 12° C.",around 50%
